Data taken from patent US11419806B2, “Prebiotic oral care methods using a saccharide” (Colgate-Palmolive Company, priority 2013, dated 2022).

Experiments:
Assay in all cases: Twenty-four hour optical density growth in BHI
Assay type in all cases: cell-based
Actinomyces naeslundii = conditions: A naeslundii
Protocol: (§1) The extent of growth of the tested bacteria in response to selected saccharides (myo-inositol, D-lactitol, D-turanose and N-acetyl-D-mannosamine) was investigated by setting up growth curves in a nutritionally rich medium (brain heart infusion broth (BHI), Oxoid), over 24 hours. Late exponential growth phase liquid cultures were prepared by transferring the respective bacterium from blood agar plates to BHI and overnight incubation at 37° C. in an anaerobic atmosphere for A. viscosus, V. parvula, F. nucleatum, P. gingivalis, P. intermedia, T. forsythia, A. naeslundii, and C. sputigena, and in a 5% CO2 environment for S. salivarius, S. sanguinis, S. mitis, A. actinomycetemcomitans, S. mutans, S. sobrinus and S. gordonii. Overnight cultures were transferred to BHI and adjusted to a concentration of 1×10^7 CFU/ml (colony forming units per ml) by measuring the optical density at 600 nm (OD600) (BioRad SmartSpec 3000). For each strain, 200 μl of the bacterial suspension was added to a 96-well plate containing 20 μl of the respective saccharides. Final concentrations of the saccharides were set to 5, 10, 20 and 25 μmol/ml. […] Plates were incubated as previously described.
(§2) For each combination of bacterium/saccharide, and for each of their respective controls (i.e. the particular bacterium in the nutritionally rich medium with no saccharide), the optical density was measured at 630 nm (OD630) at 0 h and 24 h (Thermo Scientific Multiskan Ascent). Additionally, the OD630 for combinations of bacterium/saccharides grown in a 5% CO2 environment were also measured every hour between 0 h and 9 h.
(§3) The experiment was carried out on three different days (thus providing 3 biological replicas) and on each day the experiment was carried out in quadruple (thus providing 4 technical replicas) for each combination of bacterium with saccharide and for each control. For each day and for each combination, the average (mean) of the values obtained (as detailed above) for the four technical replicas was calculated to provide a single value for each combination on each day. The values shown in Tables 5a,b to 6a,b, below, are the average (mean) of the three single values obtained for each combination of bacterium with saccharide.

Actinomyces viscosus = conditions: A viscosus
Protocol: as §1, §2, §3

[1] = system: Aggregatibacter actinomycetemcomitans; conditions: A actinomycetemcomitans
Protocol: as §1, §2, §3

Capnocytophaga sputigena = conditions: C sputigena
Protocol: as §1, §2, §3

Fusobacterium nucleatum = conditions: F nucleatum
Protocol: as §1, §2, §3

Porphyromonas gingivalis = conditions: P gingivalis
Protocol: as §1, §2, §3

Prevotella intermedia = conditions: P intermedia
Protocol: as §1, §2, §3

S. sanguinis = system: S. sanguinis
Protocol: as §1, §2, §3

Streptococcus gordonii = conditions: S gordonii
Protocol: as §1, §2, §3

Streptococcus mitis = conditions: S mitis
Protocol: as §1, §2, §3

Streptococcus mutans = conditions: for extent of growth: maximal OD630 over 24 hr divided by maximal OD of control (control = 1): S mutans
Protocol: as §1, §2, §3

Streptococcus salivarius = conditions: S salivarius
Protocol: as §1, §2, §3

Streptococcus sobrinus = conditions: S sobrinus
Protocol: as §1, §2, §3

Tannerella forsythia = conditions: T forsythia
Protocol: as §1, §2, §3

Veillonella parvula = conditions: V parvula
Protocol: as §1, §2, §3

OC[C@@H](O)[C@@H](O[C@H]1O[C@H](CO)[C@H](O)[C@H](O)[C@H]1O)[C@H](O)[C@@H](O)CO [D-Lactitol, 4-O-α-D-galactopyranosyl-D-glucitol]
extent of growth: maximal OD630 over 24 hr divided by maximal OD of control (control = 1) (Actinomyces naeslundii; 5 μmol/ml): 1.0156
extent of growth: maximal OD630 over 24 hr divided by maximal OD of control (control = 1) (Actinomyces naeslundii; 10 μmol/ml): 1.0334
extent of growth: maximal OD630 over 24 hr divided by maximal OD of control (control = 1) (Actinomyces naeslundii; 20 μmol/ml): 1.0688
extent of growth: maximal OD630 over 24 hr divided by maximal OD of control (control = 1) (Actinomyces naeslundii; 25 μmol/ml): 1.0686
extent of growth: maximal OD630 over 24 hr divided by maximal OD of control (control = 1) (Actinomyces viscosus; 5 μmol/ml): 0.8614
extent of growth: maximal OD630 over 24 hr divided by maximal OD of control (control = 1) (Actinomyces viscosus; 10 μmol/ml): 0.9554
extent of growth: maximal OD630 over 24 hr divided by maximal OD of control (control = 1) (Actinomyces viscosus; 20 μmol/ml): 1.0275
extent of growth: maximal OD630 over 24 hr divided by maximal OD of control (control = 1) (Actinomyces viscosus; 25 μmol/ml): 1.0300
extent of growth: maximal OD630 over 24 hr divided by maximal OD of control (control = 1) ([1]; 5 μmol/ml): 0.7044
extent of growth: maximal OD630 over 24 hr divided by maximal OD of control (control = 1) ([1]; 10 μmol/ml): 0.7052
extent of growth: maximal OD630 over 24 hr divided by maximal OD of control (control = 1) ([1]; 20 μmol/ml): 0.6952
extent of growth: maximal OD630 over 24 hr divided by maximal OD of control (control = 1) ([1]; 25 μmol/ml): 0.7095
extent of growth: maximal OD630 over 24 hr divided by maximal OD of control (control = 1) (Capnocytophaga sputigena; 5 μmol/ml): 0.8996
extent of growth: maximal OD630 over 24 hr divided by maximal OD of control (control = 1) (Capnocytophaga sputigena; 10 μmol/ml): 0.8742
extent of growth: maximal OD630 over 24 hr divided by maximal OD of control (control = 1) (Capnocytophaga sputigena; 20 μmol/ml): 0.8416
extent of growth: maximal OD630 over 24 hr divided by maximal OD of control (control = 1) (Capnocytophaga sputigena; 25 μmol/ml): 0.8337
extent of growth: maximal OD630 over 24 hr divided by maximal OD of control (control = 1) (Fusobacterium nucleatum; 5 μmol/ml): 0.9876
extent of growth: maximal OD630 over 24 hr divided by maximal OD of control (control = 1) (Fusobacterium nucleatum; 10 μmol/ml): 0.9482
extent of growth: maximal OD630 over 24 hr divided by maximal OD of control (control = 1) (Fusobacterium nucleatum; 20 μmol/ml): 0.9034
extent of growth: maximal OD630 over 24 hr divided by maximal OD of control (control = 1) (Fusobacterium nucleatum; 25 μmol/ml): 0.8805
extent of growth: maximal OD630 over 24 hr divided by maximal OD of control (control = 1) (Porphyromonas gingivalis; 5 μmol/ml): 0.9615
extent of growth: maximal OD630 over 24 hr divided by maximal OD of control (control = 1) (Porphyromonas gingivalis; 10 μmol/ml): 0.9989
extent of growth: maximal OD630 over 24 hr divided by maximal OD of control (control = 1) (Porphyromonas gingivalis; 20 μmol/ml): 0.9706
extent of growth: maximal OD630 over 24 hr divided by maximal OD of control (control = 1) (Porphyromonas gingivalis; 25 μmol/ml): 1.0115
extent of growth: maximal OD630 over 24 hr divided by maximal OD of control (control = 1) (Prevotella intermedia; 5 μmol/ml): 0.9178
extent of growth: maximal OD630 over 24 hr divided by maximal OD of control (control = 1) (Prevotella intermedia; 10 μmol/ml): 0.9210
extent of growth: maximal OD630 over 24 hr divided by maximal OD of control (control = 1) (Prevotella intermedia; 20 μmol/ml): 0.9185
extent of growth: maximal OD630 over 24 hr divided by maximal OD of control (control = 1) (Prevotella intermedia; 25 μmol/ml): 0.9036
extent of growth: maximal OD630 over 24 hr divided by maximal OD of control (control = 1) (S. sanguinis; 5 μmol/ml): 0.8901
extent of growth: maximal OD630 over 24 hr divided by maximal OD of control (control = 1) (S. sanguinis; 10 μmol/ml): 0.9323
extent of growth: maximal OD630 over 24 hr divided by maximal OD of control (control = 1) (S. sanguinis; 20 μmol/ml): 0.9356
extent of growth: maximal OD630 over 24 hr divided by maximal OD of control (control = 1) (S. sanguinis; 25 μmol/ml): 0.9393
extent of growth: maximal OD630 over 24 hr divided by maximal OD of control (control = 1) (Streptococcus gordonii; 5 μmol/ml): 0.9828
extent of growth: maximal OD630 over 24 hr divided by maximal OD of control (control = 1) (Streptococcus gordonii; 10 μmol/ml): 0.9945
extent of growth: maximal OD630 over 24 hr divided by maximal OD of control (control = 1) (Streptococcus gordonii; 20 μmol/ml): 0.9931
extent of growth: maximal OD630 over 24 hr divided by maximal OD of control (control = 1) (Streptococcus gordonii; 25 μmol/ml): 1.0101
extent of growth: maximal OD630 over 24 hr divided by maximal OD of control (control = 1) (Streptococcus mitis; 5 μmol/ml): 0.8694
extent of growth: maximal OD630 over 24 hr divided by maximal OD of control (control = 1) (Streptococcus mitis; 10 μmol/ml): 0.9020
extent of growth: maximal OD630 over 24 hr divided by maximal OD of control (control = 1) (Streptococcus mitis; 20 μmol/ml): 0.9151
extent of growth: maximal OD630 over 24 hr divided by maximal OD of control (control = 1) (Streptococcus mitis; 25 μmol/ml): 0.8839
stimulation of growth of S. mutans (Streptococcus mutans; Example 2): does not stimulate growth
extent of growth: maximal OD630 over 24 hr divided by maximal OD of control (control = 1) (Streptococcus mutans; 5 μmol/ml): 0.9466
extent of growth: maximal OD630 over 24 hr divided by maximal OD of control (control = 1) (Streptococcus mutans; 10 μmol/ml): 0.9230
extent of growth: maximal OD630 over 24 hr divided by maximal OD of control (control = 1) (Streptococcus mutans; 20 μmol/ml): 0.9036
extent of growth: maximal OD630 over 24 hr divided by maximal OD of control (control = 1) (Streptococcus mutans; 25 μmol/ml): 0.9149
extent of growth: maximal OD630 over 24 hr divided by maximal OD of control (control = 1) (Streptococcus salivarius; 5 μmol/ml): 1.1349
extent of growth: maximal OD630 over 24 hr divided by maximal OD of control (control = 1) (Streptococcus salivarius; 10 μmol/ml): 1.3489
extent of growth: maximal OD630 over 24 hr divided by maximal OD of control (control = 1) (Streptococcus salivarius; 20 μmol/ml): 1.3431
extent of growth: maximal OD630 over 24 hr divided by maximal OD of control (control = 1) (Streptococcus salivarius; 25 μmol/ml): 1.3159
extent of growth: maximal OD630 over 24 hr divided by maximal OD of control (control = 1) (Streptococcus sobrinus; 5 μmol/ml): 1.0650
extent of growth: maximal OD630 over 24 hr divided by maximal OD of control (control = 1) (Streptococcus sobrinus; 10 μmol/ml): 1.0189
extent of growth: maximal OD630 over 24 hr divided by maximal OD of control (control = 1) (Streptococcus sobrinus; 20 μmol/ml): 1.0335
extent of growth: maximal OD630 over 24 hr divided by maximal OD of control (control = 1) (Streptococcus sobrinus; 25 μmol/ml): 1.0163
extent of growth: maximal OD630 over 24 hr divided by maximal OD of control (control = 1) (Tannerella forsythia; 5 μmol/ml): 0.9351
extent of growth: maximal OD630 over 24 hr divided by maximal OD of control (control = 1) (Tannerella forsythia; 10 μmol/ml): 0.9434
extent of growth: maximal OD630 over 24 hr divided by maximal OD of control (control = 1) (Tannerella forsythia; 20 μmol/ml): 0.9426
extent of growth: maximal OD630 over 24 hr divided by maximal OD of control (control = 1) (Tannerella forsythia; 25 μmol/ml): 0.9367
extent of growth: maximal OD630 over 24 hr divided by maximal OD of control (control = 1) (Veillonella parvula; 5 μmol/ml): 0.8722
extent of growth: maximal OD630 over 24 hr divided by maximal OD of control (control = 1) (Veillonella parvula; 10 μmol/ml): 0.8854
extent of growth: maximal OD630 over 24 hr divided by maximal OD of control (control = 1) (Veillonella parvula; 20 μmol/ml): 0.8909
extent of growth: maximal OD630 over 24 hr divided by maximal OD of control (control = 1) (Veillonella parvula; 25 μmol/ml): 0.9054
